In patent US5866684A, “Peptidyl inhibitors of viral proteases” (Hoffmann-La Roche Inc., priority 1996, dated 1999) one finds IC50 data, which are given here for six compounds.

Numbered stars: 1 amine (or outer) side, 2 acyl side, 3 side chain; on linkers, the order of the positions; unused ones are H or OH. Square brackets hold non-standard residues; d marks the D form. Peptide text beside a SMILES is read from it. X1 = CC(F)(F)C[C@H](N[*:1])C(=O)[*:2]; Phe(2-Me) = Cc1ccccc1C[C@H](N)C(=O)O; Suc = O=C(CCC(=O)[*:2])[*:1]; Tle = CC(C)(C)[C@H](N)C(=O)O

The target of the test is T1, HCV proteinase (Hepatitis C virus genotype 1b, UniProt P26662).
T1 construct: Regions encompassing the NS3 proteinase domain (amino acids 1007-1219); made in house; host or cells: E. coli strain MC1061
T1 sequence (P26662 1007-1219): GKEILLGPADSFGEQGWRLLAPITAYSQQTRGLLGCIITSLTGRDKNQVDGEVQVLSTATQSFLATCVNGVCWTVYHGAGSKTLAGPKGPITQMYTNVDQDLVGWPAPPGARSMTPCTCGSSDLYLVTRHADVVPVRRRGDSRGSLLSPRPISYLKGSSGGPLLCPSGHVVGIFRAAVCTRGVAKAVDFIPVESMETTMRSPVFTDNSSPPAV
Briefly: HCV proteinase inhibition: cleavage of quenched fluorescence substrate NS4A/B.F peptide by enzyme MBP-NS3"Gly12-NS4A. Type of test: biochemical. The following applies: enzyme MBP-NS3"Gly12-NS4A 1 μg in 200 μl, pH 8.5, 15 minutes preincubation, NS4A/B.F peptide 10 μM, read after a further 10 minutes. The source says: As mentioned earlier, the compounds of formula I and salts of acidic compounds of formula I with bases are inhibitors of proteases of viral origin.
The nucleotide sequence of this expression plasmid is given in FIGS. 1a-j appended hereto and the amino acid sequence of its expression product is given in FIG. 2 appended hereto. It is based on the pMAL®-c2 vector supplied by New England Biolabs, Inc. (32 Tozer Rd., Beverly, Mass., USA). The principle of the construction was to create an in-frame fusion of the maltose binding protein (MBP) gene supplied by the pMAL-c2 vector, and sequences of the HCV genome necessary for NS3 proteinase activity. These HCV sequences were inserted between the EcoRI and HindIII sites of the pMAL-c2 polylinker (positions 2695 and 3556 respectively of the sequence given in FIGS. 1a-j).
HCV sequences were derived from plasmids pDS 3348-4045 and pBFK 3348-6062, described by Bartenschlager et al, 1993 (Journal of Virology, 67, 3835-3844). Regions encompassing the NS3 proteinase domain (amino acids 1007-1219) and the NS4A domain (amino acids 1658-1711) were isolated and inserted into the pMAL-c2 vector using standard recombinant DNA techniques, including the PCR amplification of required sequences. Between the NS3 and NS4A domains, a linker region was constructed using synthetic oligonucleotides (positions 3343-3390; amino acids 606-621). The resulting plasmid was used to transform E. coli (strain MC1061) cells and expression of the MBP-NS3"Gly12 -NS4A enzyme was induced as described below.
E. coli (strain MC1061) cells transformed with the foregoing plasmid were grown in Luria broth containing ampicillin (100 μg/ml) at 37° C. The cells were grown until an optical density of 0.5 at 600 nm had been reached and enzyme expression was then induced by adding 1 mM isopropylthiogalactoside and incubating at 37° C. for a further 3 hours. The cells were harvested by centrifugation and stored at -80° C.
A pellet from 4 l of bacterial culture was resuspended in E.coli lysis buffer (20 mM Tris HCl, pH 7.5, containing 150 mM NaCl, 1 mM EDTA and 10 mM dithiothreitol) and cell lysis was achieved by two passages through a French Pressure cell. The clear supernatant obtained by centrifugation (18000 g, 30 minutes) was then applied to an amylose resin column (4×1 cm) (New England Biolabs) which had been equilibrated with ice-cold 50 mM Tris HCl, pH 8.5, containing 200 mM NaCl, 1 mM dithiothreitol and 5% glycerol. The column was washed thoroughly with the equilibration buffer and bound protein was eluted using the equilibration buffer containing 10 mM maltose. Fractions of 1 ml were collected, with fractions containing the enzyme being pooled and stored at -80° C. Enzyme concentration was assayed by the method of M. B. Bradford, Analytical Biochemistry, 1976, vol. 72, p.248.
Compounds of formula I (routinely prepared as stock solutions in DMSO) were assayed for their ability to inhibit the cleavage of a quenched fluorescence substrate [NS4A/B.F peptide (N-[4-[4-(dimethylamino)phenylazo]benzoyl]-L-α-aspartyl-L-α-glutamyl-L-methionyl-L-(x-glutamyl-L-α-glutamyl-L-cysteinyl-L-alanyl-L- seryl-L-histidyl-N5-[2-(5-sulpho-1-naphthylamino)ethyl]-L-glutaminamide); Wilkinson et al, Society for General Microbiology Meeting, University of Warwick, England, 28 Mar. 1996] based on the NS4A/4B cleavage site by enzyme MBP-NS3"Gly12 -NS4A in microtitre plates as follows:
The enzyme (1 μg) was added to 200 μl final volume of a mixture containing 50 mM Tris HCl, pH 8.5, with 1 mM dithiothreitol, 0.1% Triton X-100 and the test compound of formula I. The resulting mixture was incubated at room temperature for 15 minutes prior to starting the reaction by the addition of NS4A/B.F peptide to a final concentration of 10 μM. The progress of the reaction was evaluated with a Perseptive Biosystems Cytofluor II using an excitation wavelenth of 360 nm and an emission wavelength of 530 nm. […]
The compound `Cc1ccccc1C[C@H](NC(=O)[C@H](CCC(=O)O)NC(=O)[C@H](CC(=O)O)NC(=O)CCC(=O)O)C(=O)N[C@H](C(=O)N[C@@H](CC(C)C)C(=O)NC(C=O)CC(F)(F)F)C(C)(C)C` (mixture of isomers) [C, 2(RS)-[[N-[N-[N-[N-[N-(3-carboxypropionyl)-L-α-aspartyl]-L-α-glutamyl]-2-methyl-L-phenylalanyl]-3-methyl-L-valyl]-L-leucyl]amino]-4,4,4-trifluorobutyraldehyde] yielded an IC50 of 64 nM. Take `C=CCC(C=O)NC(=O)[C@H](CC(C)C)NC(=O)[C@@H](NC(=O)[C@H](Cc1ccccc1C)NC(=O)[C@H](CCC(=O)O)NC(=O)[C@H](CC(=O)O)NC(=O)CCC(=O)O)C(C)(C)C` (mixture of isomers) [A, 2(RS)-[[N-[N-[N-[N-[N-(3-carboxypropionyl)-L-α-aspartyl]-L-α-glutamyl]-2-methyl-L-phenylalanyl]-3-methyl-L-valyl]-L-leucyl]amino]-4-pentenaldehyde]: the IC50 is 90 nM.

The compound `CCCC(NC(=O)[C@H](CC(C)C)NC(=O)[C@@H](NC(=O)[C@H](Cc1ccccc1C)NC(=O)[C@H](CCC(=O)O)NC(=O)[C@H](CC(=O)O)NC(=O)CCC(=O)O)C(C)(C)C)B(O)O` (mixture of isomers) [F, 1(RS)-[[N-[N-[N-[N-[N-(3-carboxypropionyl)-L-α-aspartyl]-L-α-glutamyl]-2-methyl-L-phenylalanyl]-3-methyl-L-valyl]-L-leucyl]amino]butylboronic acid] registered an IC50 of 160 nM.

`C=CCC(NC(=O)[C@H](CC(C)C)NC(=O)[C@@H](NC(=O)[C@H](Cc1ccccc1C)NC(=O)[C@H](CCC(=O)O)NC(=O)[C@H](CC(=O)O)NC(=O)CCC(=O)O)C(C)(C)C)B(O)O` (mixture of isomers) [D, 1(RS)-[[N-[N-[N-[N-[N-(3-carboxypropionyl)-L-α-aspartyl]-L-α-glutamyl]-2-methyl-L-phenylalanyl]-3-methyl-L-valyl]-L-leucyl]amino]-3-butenylboronic acid] gave an IC50 of 34 nM. Then `CCC(NC(=O)[C@H](CC(C)C)NC(=O)[C@@H](NC(=O)[C@H](Cc1ccccc1C)NC(=O)[C@H](CCC(=O)O)NC(=O)[C@H](CC(=O)O)NC(=O)CCC(=O)O)C(C)(C)C)B(O)O` (mixture of isomers) [E, 1(RS)-[[N-[N-[N-[N-[N-(3-carboxypropionyl)-L-α-aspartyl]-L-α-glutamyl]-2-methyl-L-phenylalanyl]-3-methyl-L-valyl]-L-leucyl]amino]propylboronic acid], with 38 nM; and `Cc1ccccc1C[C@H](NC(=O)[C@H](CCC(=O)O)NC(=O)[C@H](CC(=O)O)NC(=O)CCC(=O)O)C(=O)N[C@H](C(=O)N[C@@H](CC(C)C)C(=O)N[C@H](C=O)CC(C)(F)F)C(C)(C)C` [B, 2(S)-[[N-[N-[N-[N-[N-(3-carboxypropionyl)-L-α-aspartyl]-L-α-glutamyl]-2-methyl-L-phenylalanyl]-3-methyl-L-valyl]-L-leucyl]amino]-4,4-difluorovaleraldehyde] (Suc-DE[Phe(2-Me)][Tle]L[X1]-aldehyde), with 70 nM.
